A word on the AC50: it is the concentration giving half of the maximal activity seen. In general, IC50 refers to the concentration that gives 50% inhibition. As usually defined, the CC50 is the concentration that lowers cell viability or growth by half. For orientation: EC50 means the concentration needed to bring the measured effect to its halfway point.

Series [1] can be described thus: loss of viability in HepG2 cells – cell-based, CellTiter-Glo, cherry-picked, cytotoxicity control for Shn3 inhibitor project, dose response (AID 624134). Format: functional. Background: Cellular ATP, detected with luciferase, serves as a proxy for viable cell number.
A short description of series [2]: reduction of Shn3 3'UTR-driven luciferase in osteoblasts – cell-based, Clone20 osteoblasts, firefly luciferase, cherry-picked, dose response (AID 624132).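 Note: firefly luciferase luminescence from reporter carrying the Shn3 3'UTR in osteoblasts.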 Format: functional.
Series [3] in a line: non-specific 3'UTR reporter inhibition in Clone20-Shn3RL – cell-based, Renilla luciferase, cherry-picked, counter-screen for Shn3 inhibitor project, dose response (AID 624133). In kind it is functional. A general note: Counterscreens check selectivity or assay interference.
Series [4] concerns the target T1, Ubiquitin-conjugating enzyme E2 N (Homo sapiens, UniProt P61088).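 Note: Dose-response confirmation in a TR-FRET assay detecting UBC13-driven polyubiquitin chain formation, inhibition measured.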
T1 sequence (P61088 whole entry): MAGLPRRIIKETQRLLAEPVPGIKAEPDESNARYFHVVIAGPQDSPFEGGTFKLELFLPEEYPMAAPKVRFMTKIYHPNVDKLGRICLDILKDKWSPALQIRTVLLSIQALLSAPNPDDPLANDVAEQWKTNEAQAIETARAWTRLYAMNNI
Format: functional.

The target of series [5] is T2, Calpain-2 catalytic subunit (Sus scrofa, UniProt P43367).
T2 sequence (P43367 whole entry): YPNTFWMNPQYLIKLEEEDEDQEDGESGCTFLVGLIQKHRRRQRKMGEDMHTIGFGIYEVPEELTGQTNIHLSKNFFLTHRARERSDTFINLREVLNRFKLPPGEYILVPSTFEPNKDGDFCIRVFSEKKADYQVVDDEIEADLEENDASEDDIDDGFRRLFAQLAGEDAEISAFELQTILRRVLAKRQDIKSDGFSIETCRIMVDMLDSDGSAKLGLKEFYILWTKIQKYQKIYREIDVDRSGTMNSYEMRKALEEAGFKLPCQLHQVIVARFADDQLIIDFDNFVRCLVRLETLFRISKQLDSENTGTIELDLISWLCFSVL
Nature of the series: m-calpain protease blockers, concentration series – biochemical, fluorogenic peptide substrate, dose response (AID 1420). Format: functional.

Series [6] in a line: viability of uninfected HEp-2 cells – cell-based, HTS, cytotoxicity control for RSV inhibitor project, dose response (AID 2410). Format: functional. The settings on record: human respiratory syncytial virus.
Series [7] can be described thus: cells.
A short description of series [8]: HIV-1 AD8 envelope cell-cell fusion blockers – cherry-pick, dose response (AID 652062).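 Note: luciferase signal from cell-cell fusion driven by HIV-1 clade B AD8 Env; potency is for inhibitors of fusion seen as a drop in luminescence.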 In kind it is functional, cell-based.
The nature of series [9]: off-target signal loss in HeLa-CEM21 co-culture – HeLa F-luc CTL cells, cherry-picked, counter-screen for HIV-1 Env fusion inhibitor project, dose response (AID 652040).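 Note: potency for signal decrease marking cytotoxic or nonspecific inhibition.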 In kind it is functional, cell-based.
Series [10] is described as follows: blockers of HIV-1 ZM109 envelope-driven cell-cell fusion – HeLa effector, CEM target cells, luciferase, cherry-pick, dose response (AID 652058).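 Note: luciferase signal from HIV-1 Env mediated cell-cell fusion of effector and target cells.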 In kind it is functional, cell-based.
A short description of series [11]: blockers of HIV-1 envelope-mediated cell-cell fusion – cherry-pick, dose response (AID 652057). In kind it is functional, cell-based.
In series [12] the target is T3, Microphthalmia-associated transcription factor (Homo sapiens, UniProt O75030).
T3 sequence (O75030 whole entry): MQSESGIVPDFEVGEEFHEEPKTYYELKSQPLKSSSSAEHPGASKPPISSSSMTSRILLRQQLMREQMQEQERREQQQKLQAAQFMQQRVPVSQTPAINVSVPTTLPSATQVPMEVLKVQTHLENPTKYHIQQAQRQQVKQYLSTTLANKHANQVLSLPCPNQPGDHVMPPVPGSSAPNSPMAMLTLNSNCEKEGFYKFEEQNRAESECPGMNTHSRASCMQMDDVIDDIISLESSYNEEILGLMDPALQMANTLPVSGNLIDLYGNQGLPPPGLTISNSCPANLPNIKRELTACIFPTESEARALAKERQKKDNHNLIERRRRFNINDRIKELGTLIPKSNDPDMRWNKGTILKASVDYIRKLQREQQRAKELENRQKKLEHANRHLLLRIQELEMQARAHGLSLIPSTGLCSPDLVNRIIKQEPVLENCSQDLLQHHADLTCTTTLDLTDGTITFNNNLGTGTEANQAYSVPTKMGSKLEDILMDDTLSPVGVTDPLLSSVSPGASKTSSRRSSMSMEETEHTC
Nature of the series: reducers of TRPM1 reporter luminescence, concentration series – cell-based, SK-MEL-5, cherry-picked, set 3, MITF inhibitor project, dose response (AID 493073).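 Note: SK-MEL-5 melanoma cells with luciferase driven by the MITF target TRPM1 promoter.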 Format: functional.

Series [13] addresses FAD-linked sulfhydryl oxidase ALR (Homo sapiens, UniProt P55789). Nature of the series: ALR-catalysed DTT oxidation blockers – biochemical, H2O2 detection, luminescence, cherry-pick, dose response (AID 493248).
In series [14] the target is Cytochrome P450 2C19 (Homo sapiens, UniProt P33261). Nature of the series: Cytochrome panel assay with activity outcomes. Panel member name: p450-cyp2c19 Compounds with AC50 equal or less than 10 uM are considered active. Format: functional. The note with it: read-out: AC50.
Cytochrome P450 2C19, sequence (P33261 whole entry): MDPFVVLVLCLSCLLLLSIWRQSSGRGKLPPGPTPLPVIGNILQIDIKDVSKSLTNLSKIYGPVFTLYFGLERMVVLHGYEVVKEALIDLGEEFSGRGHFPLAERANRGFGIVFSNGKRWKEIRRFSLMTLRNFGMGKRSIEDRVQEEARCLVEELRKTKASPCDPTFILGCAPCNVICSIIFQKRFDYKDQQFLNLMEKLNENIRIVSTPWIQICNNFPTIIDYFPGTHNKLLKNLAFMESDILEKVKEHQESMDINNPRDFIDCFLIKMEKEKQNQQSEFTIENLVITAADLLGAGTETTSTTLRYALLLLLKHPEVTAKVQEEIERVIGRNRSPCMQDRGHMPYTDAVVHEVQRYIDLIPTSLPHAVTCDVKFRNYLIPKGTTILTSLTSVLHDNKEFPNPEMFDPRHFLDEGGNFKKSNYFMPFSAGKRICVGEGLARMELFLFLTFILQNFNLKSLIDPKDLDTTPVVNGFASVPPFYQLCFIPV
The target of series [15] is T4, Cytochrome P450 1A2 (Homo sapiens, UniProt P05177).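 Note: PubChem cytochrome P450 panel assay, CYP1A2 panel member.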
T4 sequence (P05177 whole entry): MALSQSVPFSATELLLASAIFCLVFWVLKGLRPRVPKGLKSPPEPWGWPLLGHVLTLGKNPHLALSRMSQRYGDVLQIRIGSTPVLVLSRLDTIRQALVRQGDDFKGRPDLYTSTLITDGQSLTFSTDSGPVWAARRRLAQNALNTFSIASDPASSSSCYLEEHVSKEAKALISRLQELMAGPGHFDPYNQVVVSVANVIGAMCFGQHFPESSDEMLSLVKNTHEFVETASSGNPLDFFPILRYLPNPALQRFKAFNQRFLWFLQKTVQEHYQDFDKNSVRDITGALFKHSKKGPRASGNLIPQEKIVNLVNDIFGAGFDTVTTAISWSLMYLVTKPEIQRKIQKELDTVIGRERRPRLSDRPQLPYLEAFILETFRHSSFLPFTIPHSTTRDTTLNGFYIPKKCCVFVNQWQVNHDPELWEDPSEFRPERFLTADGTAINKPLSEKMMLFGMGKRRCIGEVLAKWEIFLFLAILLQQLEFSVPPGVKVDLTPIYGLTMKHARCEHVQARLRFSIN

The target in series [16] is Cytochrome P450 2C9 (Homo sapiens, UniProt P11712).
Cytochrome P450 2C9, sequence (P11712 whole entry): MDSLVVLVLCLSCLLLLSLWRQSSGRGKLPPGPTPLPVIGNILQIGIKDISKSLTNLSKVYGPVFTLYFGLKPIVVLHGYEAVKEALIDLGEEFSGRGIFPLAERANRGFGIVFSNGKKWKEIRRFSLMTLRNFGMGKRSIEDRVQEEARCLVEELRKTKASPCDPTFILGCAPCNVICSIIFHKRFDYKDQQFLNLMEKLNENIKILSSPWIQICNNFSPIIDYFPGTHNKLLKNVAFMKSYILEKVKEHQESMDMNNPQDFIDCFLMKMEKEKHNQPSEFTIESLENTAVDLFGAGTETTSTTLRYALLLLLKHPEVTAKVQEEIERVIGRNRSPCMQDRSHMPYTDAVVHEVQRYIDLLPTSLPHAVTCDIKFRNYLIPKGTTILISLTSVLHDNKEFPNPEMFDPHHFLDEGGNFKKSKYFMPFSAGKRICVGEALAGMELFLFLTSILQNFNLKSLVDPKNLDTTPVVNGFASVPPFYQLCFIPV
In series [17] the target is Cytochrome P450 3A4 (Homo sapiens, UniProt P08684).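 Note: CYP3A4 tested as one member of a cytochrome P450 panel screen.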
Cytochrome P450 3A4, sequence (P08684 whole entry): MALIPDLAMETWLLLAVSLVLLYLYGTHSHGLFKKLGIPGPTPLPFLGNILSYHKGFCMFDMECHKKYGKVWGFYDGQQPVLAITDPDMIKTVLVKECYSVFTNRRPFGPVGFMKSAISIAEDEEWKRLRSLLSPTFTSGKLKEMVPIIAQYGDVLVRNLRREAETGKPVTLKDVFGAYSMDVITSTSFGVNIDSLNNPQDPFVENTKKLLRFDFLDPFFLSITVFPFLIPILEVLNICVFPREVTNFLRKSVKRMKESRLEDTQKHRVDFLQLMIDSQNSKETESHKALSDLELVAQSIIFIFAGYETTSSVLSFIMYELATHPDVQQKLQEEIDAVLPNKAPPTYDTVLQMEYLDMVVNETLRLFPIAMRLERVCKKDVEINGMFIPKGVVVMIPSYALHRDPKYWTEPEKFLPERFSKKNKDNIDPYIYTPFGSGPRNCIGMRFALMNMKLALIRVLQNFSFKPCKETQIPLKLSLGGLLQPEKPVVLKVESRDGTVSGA
The nature of series [18]: cells. Format: functional, cell-based.
Series [19] is described as follows: cells. In kind it is functional, cell-based. The source holds these as a separate data set.
Series [20] deals with HEK293. Nature of the series: EBV LMP1 TES2 canonical NF-kB signalling blockers – cell-based, HEK293, luciferase, cherry-pick, dose response (AID 588343). In kind it is functional. The settings on record: Homo sapiens.
Series [21] has as its system INS1. Nature of the series: INS-1E survival protection against cytokine death – cell-based, luminescence, retest, dose response (AID 449756).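 Note: cell death triggered by IL-1 beta plus TNF-alpha plus IFN-gamma mixture; protective hits raise ATP signal compared with cytokine alone wells.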 Format: functional. The note with it: Rattus norvegicus.

Active and inactive are the calls of the source.

FAD-linked sulfhydryl oxidase ALR, sequence (P55789 whole entry): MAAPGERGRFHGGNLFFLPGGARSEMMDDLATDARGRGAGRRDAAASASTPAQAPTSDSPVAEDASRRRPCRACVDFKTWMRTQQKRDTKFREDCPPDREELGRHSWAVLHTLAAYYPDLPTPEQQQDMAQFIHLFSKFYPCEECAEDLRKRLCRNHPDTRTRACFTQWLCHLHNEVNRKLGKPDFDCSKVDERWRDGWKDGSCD

For the compound `CCOc1ccc(CCN2C(=S)N([C@@H](CC(C)C)CN3CCCC3CN3C(=S)NC[C@@H]3Cc3ccc(O)cc3)C[C@@H]2Cc2ccc(O)cc2)cc1` (stereo partly specified), the AC50 was 53.9 µM (active) in [1], 11.5 µM (active) in series [2] and 6.52 µM (active) in series [3].
Consider `Cc1cccc(N(C(=O)c2snc(C(N)=O)c2N)C(C(=O)NCC2CCCO2)c2cccs2)c1` (stereo unspecified), for which the IC50 in series [4] was > 20 µM (inactive).
For the compound `CC(C)Sc1nc2c3ccccc3nc-2c(O)n1C`, in series [5], the half-inhibitory concentration (IC50) is 0.899 µM (not active).
As for `C=C(CN(C)C)C(=O)c1ccc(C)cc1C`, the AC50 in series [1] is 18.5 µM (active); in [2], 0.77 µM (active); in series [3], 5.15 µM (active).
For `Cc1cc(N2CCN(c3ccccc3)CC2)n2cc(-c3ccccc3)nc2n1`, in series [6], the cytotoxic concentration (CC50) is 45.6 µM (active). Also, in series [7], the IC50 was 40 µM (active).
Turning to `Cc1ccc(Nc2nc(NCC3CC3)nc3ccsc23)c(C)c1`, the values for the AC50 in series [1], in series [2] and in series [3] were > 70 µM (inactive), 5.82 µM (active) and 19.4 µM (active), respectively.
Turning to `COC(=O)[C@@]1(C)[C@H]2C(=O)N(Cc3ccccc3)C(=O)[C@H]2[C@H]2CN=C(SCc3ccccc3)N21`, the AC50 in series [8] was 4.03 µM (active); in series [9], 1.02 µM (active); in series [10] it was 0.74 µM (active); in series [11], 0.75 µM (active).
As to `CC(C)=CCC/C(C)=C/CNC(=O)C[C@H]1C[C@H](C(=O)N(C(C)C)C(C)C)[C@@]2(C)c3[nH]c4cc(CCC(=O)N(C)C)ccc4c3CCN2C1=O`, the values for the AC50 in [2] and in [3] were 2.05 µM (active) and 11.9 µM (active), respectively.
For the compound `COc1ccccc1NCC(=O)Nc1cc(S(=O)(=O)N2CCOCC2)ccc1N1CCOCC1`, the IC50 in series [7] is 5.88 µM (active).
On to `COc1ccc(N(C(=O)c2snc(C(N)=O)c2N)C(C(=O)NC2CCCC2)c2cccs2)cc1OC` (stereo unspecified), for which the IC50 in series [4] is > 20 µM (inactive).
Consider `CN(C)S(=O)(=O)c1cccc(NC(=O)CSc2nc3c(cc2C#N)C(=O)CC(C)(C)C3)c1`, for which the AC50 in [12] is 9.02 µM (active).
Take `Cc1ccc(S(=O)(=O)NNC(=O)C(=O)NNc2ccccn2)cc1`: in [13], the concentration at half-maximal activity (AC50) was 0.213 µM (active). For the same compound, the IC50 in series [4] is > 20 µM (inactive).
Consider `COc1ccccc1N1CCN(c2nc3c(C)cccn3c(=O)c2C=O)CC1`, for which the half-maximal activity concentration (AC50) was 1.12 µM (inconclusive) in [14], 12.6 µM (inconclusive) in [15] and “inconclusive” in series [16].
As to `COc1ccc2c(c1)C(=NNC(=O)c1ccccn1)c1cc(OC)ccc1-2`, the CC50 in [6] is 38.6 µM (active). In addition, the IC50 in series [7] is 24.6 µM (active).
Consider `C[C@@H]1CN([C@H](C)CO)C(=O)c2cccc(NS(=O)(=O)c3cccs3)c2O[C@@H]1CN(C)Cc1ccc(Cl)c(Cl)c1`, for which the values for the AC50 in series [8], in series [10] and in series [11] were 2.53 µM (active), 0.952 µM (active) and 0.444 µM (active), respectively.
Turning to `Cn1cc(-c2nc3cnc(Oc4cccc(Cl)c4)nc3n(CCC#N)c2=O)c2ccccc21`, the concentration at half-maximal activity (AC50) in series [17] was 7.94 µM (inconclusive); in [15] it was 2.51 µM (inconclusive); in series [16], “inconclusive”.
For the compound `CCOC(=O)N1CCC(NC(=O)c2ccc3c(c2)ncn3C2CCCC2)CC1`, the IC50 in series [5] was 23.1 µM (not active).
The same measure, in the same setting: under `CCOC(=O)C1=C(CNC(C)(C)CC(C)(C)C)NC(=O)NC1c1cccc([N+](=O)[O-])c1` (stereo unspecified) stands > 50 µM (not active).
In the case of `Cc1c(CCOC(=O)CC23CC4CC(CC(C4)C2)C3)sc[n+]1CC(=O)c1ccccc1`, the IC50 in [4] is > 20 µM (inactive).
Regarding `Cc1cccc(C2NC(=O)c3c(sc(C)c3C)N2)c1O` (stereo unspecified), the AC50 result in series [16] is on record as “inconclusive”.
In the case of `COc1ccccc1-c1sc2cc3c(cc2c1-c1ccc(OCCN2CCCCC2)cc1)OCO3`, the IC50 in series [4] is > 20 µM (inactive).
As to `O=C(Nc1cccc(Cl)c1)Nc1cccc(C(=O)O)c1`, the EC50 was 7.49 µM (active) in series [18] and > 350 µM (not active) in series [19]. Besides, the concentration at half-maximal activity (AC50) in series [20] is 10.5 µM (active).
For `O=Cc1ccc(-c2ccc([N+](=O)[O-])cc2Cl)o1`, the IC50 in series [5] was > 50 µM (not active).
As to `CC1CN(/N=C/c2ccc([N+](=O)[O-])o2)C(=N)O1` (stereo unspecified), the AC50 in series [12] is 24.1 µM (active).
On to `CCOC(=O)C1CN(S(=O)(=O)c2ccc(C)cc2)C1`, for which, in series [5], the concentration for half-maximal inhibition (IC50) is listed as 4.65 µM (not active).
With `O=S(=O)(c1ccccc1F)N1CCCC(c2nc(O)c3nnn(Cc4ccccc4Cl)c3n2)C1` (stereo unspecified), the CC50 in [6] is 47.8 µM (active). Further, the IC50 in series [7] is 47.6 µM (active).
For `NC(=O)c1nsc(C(=O)N(c2ccc(Cl)cc2)C(C(=O)NCC2CCCO2)c2cccs2)c1N` (stereo unspecified), in [4], the IC50 was > 20 µM (inactive).
Consider `CCOC(=O)c1c(CSc2nc(C)cc(C)c2C#N)n(C)c2cc(Br)c(OC(C)=O)cc12`, for which the AC50 in [20] was 31.6 µM (active); in series [21] it was 4.21 µM (active).
On to `Cc1ncccc1C(=O)N1CCCC(C(=O)c2ccc3c4c(cccc24)CC3)C1` (stereo unspecified), for which the AC50 is 8.47 µM (active) in series [8], 20.4 µM (active) in [9], 8.12 µM (active) in [10] and 7.15 µM (active) in series [11].
Consider `Cc1c(NC(=S)/C=C2\N(C)c3ccccc3C2(C)C)c(=O)n(-c2ccccc2)n1C`, for which the AC50 result in [16] is “inconclusive”.
As for `O=C(NCc1cccnc1)C1CCC(CNS(=O)(=O)c2ccc(Cl)cc2)CC1` (stereo unspecified), the IC50 in [5] is given as 2.58 µM (not active).
With `CCc1ccc2nc(O)c(C(c3nnnn3Cc3ccc(OC)cc3)N3CCOCC3)cc2c1` (stereo unspecified), the AC50 in series [8] was 43.7 µM (active); in series [9], 7.97 µM (active); in [10], 6.44 µM (active); in series [11] it was 4.74 µM (active).

The values are drawn from ChEMBL document CHEMBL1201862, “PubChem BioAssay data set” (2004).
